Reference: the NIST ThermoML archive (doi:10.1016/j.jct.2009.07.002)
Numbers after ± are expanded uncertainties.

Experiment: isobaric coefficient of expansion
Details: Liquid, DSC with Pressure Shift

CCC(O)CC [3-pentanol]
isobaric coefficient of expansion
Details | 278.15 K | 288.15 K | 298.15 K | 308.15 K | 318.15 K | 328.15 K | 338.15 K | 348.15 K
5000 kPa | 0.000898 ± 3.8e-05 1/K | 0.000935 ± 4e-05 1/K | 0.000971 ± 4.1e-05 1/K | 0.00101 ± 4.3e-05 1/K | 0.00106 ± 4.5e-05 1/K | 0.00109 ± 4.6e-05 1/K | 0.00115 ± 4.9e-05 1/K | 0.0012 ± 5.1e-05 1/K
10000 kPa | 0.000875 ± 3.7e-05 1/K | 0.000916 ± 3.9e-05 1/K | 0.000952 ± 4e-05 1/K | 0.00099 ± 4.2e-05 1/K | 0.00103 ± 4.4e-05 1/K | 0.00107 ± 4.5e-05 1/K | 0.00113 ± 4.8e-05 1/K | 0.00117 ± 5e-05 1/K
15000 kPa | 0.000861 ± 3.7e-05 1/K | 0.000898 ± 3.8e-05 1/K | 0.000935 ± 4e-05 1/K | 0.00097 ± 4.1e-05 1/K | 0.00101 ± 4.3e-05 1/K | 0.00104 ± 4.4e-05 1/K | 0.0011 ± 4.7e-05 1/K | 0.00113 ± 4.8e-05 1/K
20000 kPa | 0.00085 ± 3.6e-05 1/K | 0.000882 ± 3.7e-05 1/K | 0.000917 ± 3.9e-05 1/K | 0.000953 ± 4e-05 1/K | 0.000989 ± 4.2e-05 1/K | 0.00103 ± 4.4e-05 1/K | 0.00107 ± 4.6e-05 1/K | 0.00111 ± 4.7e-05 1/K
25000 kPa | 0.000826 ± 3.5e-05 1/K | 0.000868 ± 3.7e-05 1/K | 0.000899 ± 3.8e-05 1/K | 0.000934 ± 4e-05 1/K | 0.00097 ± 4.1e-05 1/K | 0.00101 ± 4.3e-05 1/K | 0.00105 ± 4.4e-05 1/K | 0.00108 ± 4.6e-05 1/K
30000 kPa | 0.000814 ± 3.5e-05 1/K | 0.00085 ± 3.6e-05 1/K | 0.00088 ± 3.7e-05 1/K | 0.000919 ± 3.9e-05 1/K | 0.000952 ± 4e-05 1/K | 0.000983 ± 4.2e-05 1/K | 0.00102 ± 4.3e-05 1/K | 0.00106 ± 4.5e-05 1/K
35000 kPa | 0.000802 ± 3.4e-05 1/K | 0.000837 ± 3.6e-05 1/K | 0.000866 ± 3.7e-05 1/K | 0.000899 ± 3.8e-05 1/K | 0.000932 ± 4e-05 1/K | 0.000965 ± 4.1e-05 1/K | 0.001 ± 4.2e-05 1/K | 0.00103 ± 4.4e-05 1/K
40000 kPa | 0.000799 ± 3.4e-05 1/K | 0.000823 ± 3.5e-05 1/K | 0.000852 ± 3.6e-05 1/K | 0.000888 ± 3.8e-05 1/K | 0.000914 ± 3.9e-05 1/K | 0.000949 ± 4e-05 1/K | 0.000976 ± 4.1e-05 1/K | 0.00101 ± 4.3e-05 1/K
45000 kPa | 0.000766 ± 3.2e-05 1/K | 0.000807 ± 3.4e-05 1/K | 0.000839 ± 3.6e-05 1/K | 0.000869 ± 3.7e-05 1/K | 0.000897 ± 3.8e-05 1/K | 0.00093 ± 3.9e-05 1/K | 0.000953 ± 4e-05 1/K | 0.000986 ± 4.2e-05 1/K
50000 kPa | 0.000769 ± 3.3e-05 1/K | 0.000792 ± 3.4e-05 1/K | 0.000822 ± 3.5e-05 1/K | 0.000852 ± 3.6e-05 1/K | 0.000879 ± 3.7e-05 1/K | 0.000907 ± 3.9e-05 1/K | 0.000931 ± 3.9e-05 1/K | 0.00096 ± 4.1e-05 1/K
55000 kPa | 0.000743 ± 3.2e-05 1/K | 0.000771 ± 3.3e-05 1/K | 0.000806 ± 3.4e-05 1/K | 0.000837 ± 3.6e-05 1/K | 0.000862 ± 3.7e-05 1/K | 0.000887 ± 3.8e-05 1/K | 0.00091 ± 3.9e-05 1/K | 0.000936 ± 4e-05 1/K
